Results taken from article PMC2680345 (Journal of Antimicrobial Chemotherapy, 2009).
Read-outs that look alike come from different tables or passages of the source. One block for each molecule: values may come before it.

Tests used:
[1] = for θ2 (factor associated with the covariate) / θ1 (typical value of V/F) / θ1 (typical value of ka): univariate model
[2] = cited from earlier work
clinical = conditions: both, human, in vivo
Plasma concentrations = format: in vivo; conditions: human, oral, ritonavir AUC0–24, median, external dataset, 18 HIV-infected patients, atazanavir/ritonavir/saquinavir 200/100/1600 mg once daily
[3] = final model, 300/100 mg once daily
[4] = influence of Black-African ethnicity on V/F: V = θ1 * θ2^AFR
[5] = influence of Black-African ethnicity on ka: ka = θ1 * θ2^AFR
[6] = influence of HIV status on V/F: V = θ1 * θ2^HIV
[7] = influence of HIV status on ka: ka = θ1 * θ2^HIV
[8] = influence of Hispanic ethnicity on ka: ka = θ1 * θ2^HSP
[9] = influence of RTV AUC0–24 on V/F: V = θ1 * (RTV/7.52)^θ2
[10] = influence of SQV on V/F: V = θ1 * θ2^SQV
[11] = influence of TDF on V/F: V = θ1 * θ2^TDF
[12] = influence of TDF on ka: ka = θ1 * θ2^TDF
[13] = influence of sex on V/F: V = θ1 * θ2^SEX
[14] = influence of weight on V/F: V = θ1 + θ2 * (WT − 76.2)

IIV CL/F (inter-individual variability) ([1]; basic model): 48%
IIV V/F (inter-individual variability) ([1]; basic model): 48%
IIV ka (inter-individual variability) ([1]; basic model): 154%
CL/F (apparent oral clearance) ([1]; basic model (no covariates), 300/100 mg once daily): 7.6 L/h
mean individual predicted CL/F ([1]; females): 6.40 L/h
IIV CL/F (inter-individual variability) [1, 3]: 29%
IIV V/F (inter-individual variability) [1, 3]: 48%
IIV ka (inter-individual variability) [1, 3]: 154%
reduction of variability of CL/F by inclusion of ritonavir AUC0–24 as covariate ([1]; final versus basic model): 19%
mean individual predicted CL/F ([1]; males): 8.99 L/h
lower mean individual predicted CL/F in females compared with males ([1]; not significant): ~29%
θ2 (factor associated with the covariate) ([1]; influence of Black-African ethnicity on CL/F: CL = θ1 * θ2^AFR): 0.91
θ1 (typical value of V/F) [1, 4]: 100
θ2 (factor associated with the covariate) [1, 4]: 1.23
θ1 (typical value of ka) [1, 5]: 3.28
θ2 (factor associated with the covariate) [1, 5]: 1.44
θ2 (factor associated with the covariate) ([1]; influence of HIV status on CL/F: CL = θ1 * θ2^HIV): 0.80
θ1 (typical value of V/F) [1, 6]: 118
θ2 (factor associated with the covariate) [1, 6]: 0.81
θ1 (typical value of ka) [1, 7]: 2.77
θ2 (factor associated with the covariate) [1, 7]: 1.42
θ2 (factor associated with the covariate) ([1]; influence of Hispanic ethnicity on CL/F: CL = θ1 * θ2^HSP): 1.60
θ1 (typical value of ka) [1, 8]: 2.81
θ2 (factor associated with the covariate) [1, 8]: 4.42
θ2 (factor associated with the covariate) ([1]; influence of RTV AUC0–24 on CL/F: CL = θ1 * (RTV/7.52)^θ2): −0.84
θ1 (typical value of V/F) [1, 9]: 104
θ2 (factor associated with the covariate) [1, 9]: −0.50
θ2 (factor associated with the covariate) ([1]; influence of SQV (1600 mg once daily) on CL/F: CL = θ1 * θ2^SQV): 0.67
θ1 (typical value of V/F) [1, 10]: 123
θ2 (factor associated with the covariate) [1, 10]: 0.64
θ2 (factor associated with the covariate) ([1]; influence of TDF (300 mg once daily) on CL/F: CL = θ1 * θ2^TDF): 0.83
θ1 (typical value of V/F) [1, 11]: 108
θ2 (factor associated with the covariate) [1, 11]: 0.71
θ1 (typical value of ka) [1, 12]: 3.43
θ2 (factor associated with the covariate) [1, 12]: 1.10
θ2 (factor associated with the covariate) ([1]; influence of sex on CL/F: CL = θ1 * θ2^SEX): 0.77
θ1 (typical value of V/F) [1, 13]: 98.7
θ2 (factor associated with the covariate) [1, 13]: 1.26
θ2 (factor associated with the covariate) ([1]; influence of weight on CL/F: CL = θ1 + θ2 * (WT − 76.2)): 0.13
θ1 (typical value of V/F) [1, 14]: 105
θ2 (factor associated with the covariate) [1, 14]: 1.26
Vd/F (clinical): 103 L
Structure (SMILES): COC(=O)N[C@H](C(=O)N[C@@H](Cc1ccccc1)[C@@H](O)CN(Cc1ccc(-c2ccccn2)cc1)NC(=O)[C@@H](NC(=O)OC)C(C)(C)C)C(C)(C)C [atazanavir, Atazanavir]
AUC0–24 lower in HIV patients compared with healthy individuals [2]: ~20%
minimum concentrations lower in HIV patients compared with healthy individuals [2]: ~50%
peak concentrations lower in HIV patients compared with healthy individuals [2]: ~30%
half-life ([2]; population analysis by Colombo et al.): 8.8 h

AUC(0-t) (Plasma concentrations): 9060 ng·h/mL
Structure (SMILES): CC(C)c1nc(CN(C)C(=O)N[C@H](C(=O)N[C@@H](Cc2ccccc2)C[C@H](O)[C@H](Cc2ccccc2)NC(=O)OCc2cncs2)C(C)C)cs1 [ritonavir]
